Laboratory results from patent US9598420B2, “Benzodiazepine bromodomain inhibitor” (GlaxoSmithKline LLC, priority 2009, dated 2017).
Structures can show the parent of a compound that is named as a salt.

Tested on: LPS induced IL-6 secretion from whole blood
Assay: Measurement of LPS Induced IL-6 Secretion from Whole Blood
Type: cell-based
Conditions: LPS 200 ng/ml, 24 hours, immunoassay, read-out: pIC50 (IL-6 levels) (converted)
Method: Activation of monocytic cells by agonists of toll-like receptors such as bacterial lipopolysaccharide (LPS) results in production of key inflammatory mediators including IL-6. Such pathways are widely considered to be central to the pathophysiology of a range of auto-immune and inflammatory disorders.
After further incubation for 24 hours at 37 degrees, 140 ul of PBS are added to each well. The plates are sealed, shaken for 10 minutes and then centrifuged (2500 rpm×10 min). 100 ul of the supernatant are removed and IL-6 levels assayed by immunoassay (typically by MesoScale Discovery technology) either immediately or following storage at −20 degrees.

SMILES: COc1ccc2c(c1)C(c1ccc(Cl)cc1)=NC(CC(=O)NCCc1ccccc1)c1nnc(C)n1-2 (stereo not shown) [Example 2, 2-[6-(4-chlorophenyl)-1-methyl-8-(methyloxy)-4H-[1,2,4]triazolo[4,3-a][1,4]benzodiazepin-4-yl]-N-(2-phenylethyl)acetamide]
- IC50: ≤ 10 µM

SMILES: COc1ccc2c(c1)C(c1ccc(Cl)cc1)=NC(CC(=O)N1CCCCC1)c1nnc(C)n1-2 (stereo not shown) [Example 3, 6-(4-chlorophenyl)-1-methyl-8-(methyloxy)-4-[2-oxo-2-(1-piperidinyl)ethyl]-4H-[1,2,4]triazolo[4,3-a][1,4]benzodiazepine]
- IC50: ≤ 10 µM

SMILES: COc1ccc2c(c1)C(c1ccc(Cl)cc1)=NC(CC(=O)NCc1ccco1)c1nnc(C)n1-2 (stereo not shown) [Example 4, 2-[6-(4-chlorophenyl)-1-methyl-8-(methyloxy)-4H-[1,2,4]triazolo[4,3-a][1,4]benzodiazepin-4-yl]-N-(2-furanylmethyl)acetamide]
- IC50: ≤ 10 µM

SMILES: COc1ccc2c(c1)C(c1ccc(Cl)cc1)=N[C@@H](CC(=O)Nc1ccc(F)cc1)c1nnc(C)n1-2 [Example 11, 2-[(4S)-6-(4-chlorophenyl)-1-methyl-8-(methyloxy)-4H-[1,2,4]triazolo[4,3-a][1,4]benzodiazepin-4-yl]-N-(4-fluorophenyl)acetamide]
- IC50: ≤ 10 µM

SMILES: COc1ccc2c(c1)C(c1ccc(Cl)cc1)=N[C@@H](CC(=O)Nc1cccnc1)c1nnc(C)n1-2 [Example 13, 2-[(4S)-6-(4-chlorophenyl)-1-methyl-8-(methyloxy)-4H-[1,2,4]triazolo[4,3-a][1,4]benzodiazepin-4-yl]-N-3-pyridinylacetamide]
- IC50: ≤ 10 µM

SMILES: COc1ccc2c(c1)C(c1ccc(Cl)cc1)=N[C@@H](CC(=O)N[C@@H](C)c1ccccc1)c1nnc(C)n1-2 [Example 17, 2-[(4S)-6-(4-chlorophenyl)-1-methyl-8-(methyloxy)-4H-[1,2,4]triazolo[4,3-a][1,4]benzodiazepin-4-yl]-N-[(1S)-1-phenylethyl]acetamide]
- IC50: ≤ 10 µM

SMILES: COc1ccc2c(c1)C(c1ccc(Cl)cc1)=NC(CC(=O)NCCN(C)C)c1nnc(C)n1-2 (stereo not shown) [Example 26, 2-[6-(4-chlorophenyl)-1-methyl-8-(methyloxy)-4H-[1,2,4]triazolo[4,3-a][1,4]benzodiazepin-4-yl]-N-[2-(dimethylamino)ethyl]acetamide]
- IC50: ≤ 10 µM

SMILES: Cc1nnc2n1-c1ccc(OS(C)(=O)=O)cc1C(c1ccc(Cl)cc1)=N[C@H]2CC(=O)Nc1ccc(F)cc1 [Example 31, (4S)-6-(4-Chlorophenyl)-4-{2-[(4-fluorophenyl)amino]-2-oxoethyl}-1-methyl-4H-[1,2,4]triazolo[4,3-a][1,4]benzodiazepin-8-yl methanesulfonate]
- IC50: ≤ 10 µM

SMILES: COC(=O)C[C@@H]1N=C(c2ccc(Cl)cc2)c2cc(OC)ccc2-n2c(C)nnc21 [Example 34, Methyl [(4S)-6-(4-chlorophenyl)-1-methyl-8-(methyloxy)-4H-[1,2,4]triazolo[4,3-a][1,4]benzodiazepin-4-yl]acetate]
- IC50: ≤ 10 µM

SMILES: CNCCNC(=O)C[C@@H]1N=C(c2ccc(Cl)cc2)c2cc(OC)ccc2-n2c(C)nnc21 [Example 38, 2-[(4S)-6-(4-Chlorophenyl)-1-methyl-8-(methyloxy)-4H-[1,2,4]triazolo[4,3-a][1,4]benzodiazepin-4-yl]-N-[2-(methylamino)ethyl]acetamide trifluoroacetic acid salt]
- IC50: ≤ 10 µM

SMILES: COc1ccc2c(c1)C(c1ccc(Cl)cc1)=N[C@@H](CC(=O)NC1CCNCC1)c1nnc(C)n1-2 [Example 39, 2-[(4S)-6-(4-Chlorophenyl)-1-methyl-8-(methyloxy)-4H-[1,2,4]triazolo[4,3-a][1,4]benzodiazepin-4-yl]-N-4-piperidinylacetamide trifluoroacetic acid salt]
- IC50: ≤ 10 µM

SMILES: CNC1CCN(C(=O)C[C@@H]2N=C(c3ccc(Cl)cc3)c3cc(OC)ccc3-n3c(C)nnc32)CC1 [Example 40, 1-{[(4S)-6-(4-chlorophenyl)-1-methyl-8-(methyloxy)-4H-[1,2,4]triazolo[4,3-a][1,4]benzodiazepin-4-yl]acetyl}-N-methyl-4-piperidinamine formic acid salt]
- IC50: ≤ 10 µM

SMILES: COc1ccc2c(c1)C(c1ccc(Cl)cc1)=N[C@@H](CC(=O)N1CCC(N)CC1)c1nnc(C)n1-2 [Example 41, (S)-1-(4-aminopiperidin-1-yl)-2-(6-(4-chlorophenyl)-8-methoxy-1-methyl-4H-benzo[f][1,2,4]triazolo[4,3-a][1,4]diazepin-4-yl)ethanone]
- IC50: ≤ 10 µM

SMILES: COc1ccc2c(c1)C(c1ccc(Cl)cc1)=N[C@@H](CC(=O)NC1CNC1)c1nnc(C)n1-2 [Example 42, (S)-N-(azetidin-3-yl)-2-(6-(4-chlorophenyl)-8-methoxy-1-methyl-4H-benzo[f][1,2,4]triazolo[4,3-a][1,4]diazepin-4-yl)acetamide]
- IC50: ≤ 10 µM

SMILES: COc1ccc2c(c1)C(c1ccc(Cl)cc1)=N[C@@H](CC(=O)N1CC(N)C1)c1nnc(C)n1-2 [Example 43, (S)-1-(3-aminoazetidin-1-yl)-2-(6-(4-chlorophenyl)-8-methoxy-1-methyl-4H-benzo[f][1,2,4]triazolo[4,3-a][1,4]diazepin-4-yl)ethanone]
- IC50: ≤ 10 µM

SMILES: COc1ccc2c(c1)C(c1ccc(Cl)cc1)=N[C@@H](CC(=O)N1CCC(O)CC1)c1nnc(C)n1-2 [Example 44, (S)-2-(6-(4-chlorophenyl)-8-methoxy-1-methyl-4H-benzo[f][1,2,4]triazolo[4,3-a][1,4]diazepin-4-yl)-1-(4-hydroxypiperidin-1-yl)ethanone]
- IC50: ≤ 10 µM

SMILES: COc1ccc2c(c1)C(c1ccc(Cl)cc1)=N[C@@H](CC(=O)NCCN1CCOCC1)c1nnc(C)n1-2 [Example 45, 2-[(4S)-6-(4-chlorophenyl)-1-methyl-8-(methyloxy)-4H-[1,2,4]triazolo[4,3-a][1,4]benzodiazepin-4-yl]-N-[2-(4-morpholinyl)ethyl]acetamide]
- IC50: ≤ 10 µM

SMILES: COc1ccc2c(c1)C(c1ccc(Cl)cc1)=N[C@@H](CC(=O)NCCc1c[nH]cn1)c1nnc(C)n1-2 [Example 46, 2-[(4S)-6-(4-chlorophenyl)-1-methyl-8-(methyloxy)-4H-[1,2,4]triazolo[4,3-a][1,4]benzodiazepin-4-yl]-N-[2-(1H-imidazol-4-yl)ethyl]acetamide]
- IC50: ≤ 10 µM

SMILES: COc1ccc2c(c1)C(c1ccc(Cl)cc1)=N[C@@H](CC(=O)OC(C)(C)C)c1nnc(C)n1-2 [Example 47, (S)-tert-butyl-2-(6-(4-chlorophenyl)-8-methoxy-1-methyl-4H-benzo[f][1,2,4]triazolo[4,3-a][1,4]diazepin-4-yl)acetate]
- IC50: ≤ 10 µM

SMILES: COc1ccc2c(c1)C(c1ccc(Cl)cc1)=N[C@@H](CC(=O)OC1CCNCC1)c1nnc(C)n1-2 [Example 48, (S)-piperidin-4-yl-2-(6-(4-chlorophenyl)-8-methoxy-1-methyl-4H-benzo[f][1,2,4]triazolo[4,3-a][1,4]diazepin-4-yl)acetate]
- IC50: ≤ 10 µM

SMILES: COc1ccc2c(c1)C(c1ccc(Cl)cc1)=N[C@@H](CC(=O)NCCN(C)C)c1nnc(C)n1-2 [Example 50, 2-[(4S)-6-(4-chlorophenyl)-1-methyl-8-(methyloxy)-4H-[1,2,4]triazolo[4,3-a][1,4]benzodiazepin-4-yl]-N-[2-(dimethylamino)ethyl]acetamide formic acid salt]
- IC50: ≤ 10 µM

SMILES: COc1ccc2c(c1)C(c1ccc(Cl)cc1)=N[C@@H](CC(=O)NCCCN(C)C)c1nnc(C)n1-2 [Example 51, 2-[(4S)-6-(4-chlorophenyl)-1-methyl-8-(methyloxy)-4H-[1,2,4]triazolo[4,3-a][1,4]benzodiazepin-4-yl]-N-[3-(dimethylamino)propyl]acetamide formic acid salt]
- IC50: ≤ 10 µM

SMILES: COc1ccc2c(c1)C(c1ccc(Cl)cc1)=N[C@@H](CC(=O)Nc1ccncn1)c1nnc(C)n1-2 [Example 54, 2-[(4S)-6-(4-chlorophenyl)-1-methyl-8-(methyloxy)-4H-[1,2,4]triazolo[4,3-a][1,4]benzodiazepin-4-yl]-N-4-pyrimidinylacetamide]
- IC50: ≤ 10 µM

SMILES: COc1ccc2c(c1)C(c1ccc(Cl)cc1)=N[C@@H](CC(=O)Nc1cc(C)on1)c1nnc(C)n1-2 [Example 55, 2-[(4S)-6-(4-chlorophenyl)-1-methyl-8-(methyloxy)-4H-[1,2,4]triazolo[4,3-a][1,4]benzodiazepin-4-yl]-N-(5-methyl-3-isoxazolyl)acetamide]
- IC50: ≤ 10 µM

SMILES: COc1ccc2c(c1)C(c1ccc(Cl)cc1)=N[C@@H](CC(=O)NC1CCOCC1)c1nnc(C)n1-2 [Example 56, 2-[(4S)-6-(4-chlorophenyl)-1-methyl-8-(methyloxy)-4H-[1,2,4]triazolo[4,3-a][1,4]benzodiazepin-4-yl]-N-(tetrahydro-2H-pyran-4-yl)acetamide]
- IC50: ≤ 10 µM

SMILES: COc1ccc(COC(=O)C[C@@H]2N=C(c3ccc(Cl)cc3)c3cc(OC)ccc3-n3c(C)nnc32)cc1 [Example 58]
- IC50: ≤ 10 µM

SMILES: COc1ccc2c(c1)C(c1ccc(Cl)cc1)=N[C@@H](CC(=O)OCC(C)C)c1nnc(C)n1-2 [Example 59]
- IC50: ≤ 10 µM

SMILES: COc1ccc2c(c1)C(c1ccc(Cl)cc1)=N[C@@H](CC(=O)OC1CCOCC1)c1nnc(C)n1-2 [Example 60]
- IC50: ≤ 10 µM

SMILES: COc1ccc2c(c1)C(c1ccc(Cl)cc1)=NC(CC(=O)Nc1ccncc1)c1nnc(C)n1-2 (stereo not shown) [Example 61]
- IC50: ≤ 10 µM

SMILES: COc1ccc2c(c1)C(c1ccc(Cl)cc1)=NC(CC(=O)NCC1CC1)c1nnc(C)n1-2 (stereo not shown) [Example 62]
- IC50: ≤ 10 µM

SMILES: Cc1nnc2n1-c1ccccc1C(c1ccc(Cl)cc1)=NC2CC(=O)Nc1ccncc1 (stereo not shown) [Example 63]
- IC50: ≤ 10 µM

SMILES: COc1ccc2c(c1)C(c1ccc(Cl)cc1)=NC(CC(=O)Nc1nccs1)c1nnc(C)n1-2 (stereo not shown) [Example 64]
- IC50: ≤ 10 µM

SMILES: COc1ccc2c(c1)C(c1ccc(Cl)cc1)=NC(CC(=O)Nc1ccc(F)cc1)c1nnc(C)n1-2 (stereo not shown) [Example 67]
- IC50: ≤ 10 µM

SMILES: CCNC(=O)C[C@@H]1N=C(c2ccc(Cl)cc2)c2ccc(OC)cc2-n2c(C)nnc21 [Example 69]
- IC50: ≤ 10 µM
